PMC6826021 (Disease Models & Mechanisms, 2019)

Legend:
[1] = system: Etx; settings: cited from earlier work
[2] = system: Etx-treated MDCK cells; assay type: cell-based, canine
[3] = molecular target: Etx monomer binding to MDCK cells (Clostridium perfringens, UniProt Q02307); assay type: cell-based
[4] = molecular target: Etx heptamer (oligomerization) (Clostridium perfringens, UniProt Q02307); assay type: cell-based
[5] = molecular target: Etx pore formation in DPPC/cholesterol liposomes (Clostridium perfringens, UniProt Q02307); assay type: biochemical
Chain of Etx pore formation in DPPC/cholesterol liposomes (Q02307 46-306 limits assumed): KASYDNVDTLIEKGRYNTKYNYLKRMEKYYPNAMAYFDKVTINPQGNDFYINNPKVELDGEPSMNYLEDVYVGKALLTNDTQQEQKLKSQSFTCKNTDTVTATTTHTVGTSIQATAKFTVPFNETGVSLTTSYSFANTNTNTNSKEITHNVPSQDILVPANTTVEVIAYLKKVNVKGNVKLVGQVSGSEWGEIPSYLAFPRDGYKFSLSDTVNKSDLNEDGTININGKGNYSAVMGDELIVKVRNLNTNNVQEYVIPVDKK

[6] = molecular target: Etx-Etx monomers (Clostridium perfringens, UniProt Q02307); assay type: binding
Chain of Etx-Etx monomers (Q02307 46-306 limits assumed): as above

[7] = system: Ca2+ influx in Etx-treated MDCK cells; assay type: cell-based, canine
[8] = system: Etx-treated MDCK cells; assay type: cell-based, canine; remark: listed apart in the source
[9] = system: mitochondrial membrane potential in Etx-treated MDCK cells; assay type: cell-based, canine
[10] = system: ROS in Etx-treated MDCK cells; assay type: cell-based, canine
[11] = system: HMGB1 translocation in Etx-treated MDCK cells; assay type: cell-based, canine
[12] = system: Etx-challenged C57BL/6 mice; settings: mouse, in vivo
[13] = system: C57BL/6 mice; settings: mouse, in vivo

Chain of Etx heptamer (oligomerization) (Q02307 46-306 limits assumed): as above
Chain of Etx monomer binding to MDCK cells (Q02307 46-306 limits assumed): as above

With `c1ccc2c(c1)Cc1cccc3noc-2c13` [6H-anthra[1,9-cd]isoxazol] as the molecule, how does the “inhibition of Etx binding or oligomerization” value [1] read?
The value was “none of them could inhibit”.

With `CCCCOC1O[C@H](CO)[C@@H](O)[C@H](O)[C@H]1O` (stereo partly drawn) [Glycoside-4] as the molecule, how does the “cell survival upon Etx challenge (MTT), pre- and post-treatment” value [2] read?
The value was “increase in cell survival”.

What about the “protection of Etx-treated MDCK cells” value [2] of the same molecule?
The value was “highest survival efficiency”.

What about the “survival of Etx-challenged MDCK cells compared to Etx” value [2] of the same molecule?
The value was “greater than 50%”.

And the “effect on binding of Etx monomer to the cell membrane” value [3]?
Its value is “no effect”.

What about the “effect on Etx heptamer (oligomer) intensity” value [4] of the same molecule?
Its value is “substantial decrease in heptamer intensity”.

What about the “effect on pore formation in Etx-treated liposomes” value [5] of the same molecule?
The value was “tearings disappeared”.

And the “Etx (protein-protein) interaction in SPR” value [6]?
The value was “no Etx (protein-protein) interaction could be seen”.

What about the “Ca2+ entry, Fluo-4 AM fluorescence microscopy” value [7] of the same molecule?
The value was “complete reduction in Ca^2+ entry”.

And the “Ca2+ influx, Fluo-4 AM intensity by FACS” value [7]?
Its value is “drastic reduction of Fluo-4 AM intensity”.

And the “PI+ cells” value [8]?
Its value is “drastic reduction in PI^+ cells”.

What about the “annexin V+/PI+ cells (phosphatidylserine exposure)” value [8] of the same molecule?
Its value is “absence of annexin V^+/PI^+ cells”.

What about the “mitochondrial membrane potential (ΨΔm), JC-1” value [9] of the same molecule?
Its value is “could stabilize ΨΔm”.

And the “ROS levels, DCFDA” value [10]?
The value was “decreased levels of ROS”.

What about the HMGB1 localization [11] of the same molecule?
The HMGB1 localization was “largely remained in the nucleus”.

What about the mice protected [12] of the same molecule?
Its mice protected is 60%.

And the “mice with improved liver (H&E)” value [12]?
The value was 60%.

What about the “mice with protected brain structures (H&E)” value [12] of the same molecule?
The value was 60%.

And the death rate ([12]; ip, 50 mg/kg)?
The death rate was 40%.

And the “mortality or clinical signs (seizures, convulsions and depression)” value [13]?
The value was “No mortality or clinical signs”.

Which “Ca2+ influx, Fluo-4 AM intensity by FACS” value [7] does the source give for `C[C@H](CCC(=O)O)C[C@H](C)C[C@H](C)C(=O)/C=C(\O)[C@H](C)C[C@H](C)C/C=C/[C@@H](C)[C@@H](O)[C@@H](C)[C@@H](O)C[C@@H]1CC[C@@](C)([C@H]2CC[C@@](C)([C@@H](C)O)O2)O1` [ionomycin, reference compound] here?
Its value is “Clear intensity shift”.

With `O=C(O)CN(CCOCCOCCN(CC(=O)O)CC(=O)O)CC(=O)O` [EGTA, reference compound] as the molecule, how does the “Ca2+ influx, Fluo-4 AM intensity by FACS” value [7] read?
The value was “blocked the Etx-invoked influx”.

For `c1ccc2nc3occc3cc2c1` [furo[2,3-b]quinoline], which “inhibition of Etx binding or oligomerization” value [1] is on record?
The value was “none of them could inhibit”.

Which results are given for `CCCCCCOC1O[C@H](CO)[C@@H](O)[C@H](O)[C@H]1O` (stereo partly drawn) [Glycoside-6]?
protection of Etx-treated MDCK cells [2]: concentration-dependent protection; survival of Etx-challenged MDCK cells compared to Etx [2]: greater than 50%

What does the source list for `CCCOC1O[C@H](CO)[C@@H](O)[C@H](O)[C@H]1O` (stereo partly drawn) [Glycoside-2]?
protection of Etx-treated MDCK cells [2]: concentration-dependent protection; survival of Etx-challenged MDCK cells compared to Etx [2]: greater than 50%
